# Biological target: T1, HEK-Blue-hTLR7 cells (Homo sapiens, UniProt Q9NYK1)
# T1 construct: expressed in transfected cells; host or cells: HEK-Blue-hTLR7 cells (HEK293-derived reporter line)
# T1 sequence (Q9NYK1 27-1049): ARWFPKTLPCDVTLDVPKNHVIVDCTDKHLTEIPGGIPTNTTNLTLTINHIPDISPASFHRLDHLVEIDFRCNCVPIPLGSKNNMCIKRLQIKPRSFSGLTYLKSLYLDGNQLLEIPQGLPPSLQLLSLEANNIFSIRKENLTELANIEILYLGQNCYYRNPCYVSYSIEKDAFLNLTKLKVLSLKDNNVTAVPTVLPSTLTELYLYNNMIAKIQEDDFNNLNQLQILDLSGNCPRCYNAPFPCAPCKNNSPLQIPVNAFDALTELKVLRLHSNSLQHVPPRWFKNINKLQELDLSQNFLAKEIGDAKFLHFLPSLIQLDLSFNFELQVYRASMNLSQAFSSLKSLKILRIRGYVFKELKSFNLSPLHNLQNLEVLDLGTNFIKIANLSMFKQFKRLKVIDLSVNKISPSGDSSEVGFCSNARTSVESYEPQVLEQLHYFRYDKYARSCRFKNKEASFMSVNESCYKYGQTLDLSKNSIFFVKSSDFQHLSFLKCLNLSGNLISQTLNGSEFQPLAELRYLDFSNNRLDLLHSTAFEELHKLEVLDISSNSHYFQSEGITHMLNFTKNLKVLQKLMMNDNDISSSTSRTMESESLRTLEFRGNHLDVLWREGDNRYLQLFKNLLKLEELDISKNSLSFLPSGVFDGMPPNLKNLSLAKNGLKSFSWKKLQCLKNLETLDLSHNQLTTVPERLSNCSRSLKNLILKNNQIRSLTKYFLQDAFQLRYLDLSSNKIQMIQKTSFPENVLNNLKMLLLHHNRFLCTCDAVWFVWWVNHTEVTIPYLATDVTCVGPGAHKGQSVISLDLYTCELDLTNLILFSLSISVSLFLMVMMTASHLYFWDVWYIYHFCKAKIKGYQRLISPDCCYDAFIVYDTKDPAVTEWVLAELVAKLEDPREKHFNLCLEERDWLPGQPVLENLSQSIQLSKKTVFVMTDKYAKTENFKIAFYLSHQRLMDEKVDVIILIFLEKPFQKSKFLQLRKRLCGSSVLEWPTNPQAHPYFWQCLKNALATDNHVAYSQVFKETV
# Experiment: HEK-Blue-hTLR7 cell inhibition assay
# Format: cell-based
# Conditions: R848 0.8 µM, 16 h, OD 620 nm, read-out: TLR7 IC50
# How it was run: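 Cells were pre-incubated 4 h, then co-treated 16 h at 37 °C with compound (10 doses, 0.5–10000 nM final) plus R848 (0.8 µM for TLR7, 3 µM for TLR8) or ODN2006 (1 µM, TLR9). Reporter OD620 gave inhibition relative to DMSO blank and agonist-only controls; IC50 came from curve fitting.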
row,Compound,IC50 [µM]
1,"CN(C)CC#Cc1nnc([C@]23CN(c4ccc(C#N)c5ncccc45)C[C@@]2(C(F)(F)F)C3)o1 [Compound 25, 5-((1S,5R)-1-(5-(3-(dimethylamino)prop-1-yn-1-yl)-1,3,4-oxadiazol-2-yl)-5-(trifluoromethyl)-3-azabicyclo[3.1.0]hexan-3-yl)quinoline-8-carbonitrile]",< 0.1
2,"CN1CC2(CCC(c3nnc([C@]45CN(c6ccc(C#N)c7ncccc67)C[C@@]4(C(F)(F)F)C5)o3)CC2)C1 [Compound 13, 5-((1S,5R)-1-(5-(2-methyl-2-azaspiro[3.5]nonan-7-yl)-1,3,4-oxadiazol-2-yl)-5-(trifluoromethyl)-3-azabicyclo[3.1.0]hexan-3-yl)quinoline-8-carbonitrile]",< 0.1
3,"CN(C)CCc1nnc([C@]23CN(c4ccc(C#N)c5ncccc45)C[C@@]2(C(F)(F)F)C3)o1 [Compound 51, 5-((1S,5R)-1-(5-(2-(dimethylamino)ethyl)-1,3,4-oxadiazol-2-yl)-5-(trifluoromethyl)-3-azabicyclo[3.1.0]hexan-3-yl)quinoline-8-carbonitrile]",< 0.1
4,"CN1CC2(CC(c3nnc([C@]45CN(c6ccc(C#N)c7ncccc67)C[C@@]4(C(F)(F)F)C5)o3)C2)C1 [Compound 19, 5-((1S,5R)-1-(5-(2-methyl-2-azaspiro[3.3]heptan-6-yl)-1,3,4-oxadiazol-2-yl)-5-(trifluoromethyl)-3-azabicyclo[3.1.0]hexan-3-yl)quinoline-8-carbonitrile]",< 0.1
5,"CN1CCC(c2nnc([C@]34CN(c5ccc(C#N)c6ncccc56)C[C@@]3(C(F)(F)F)C4)[nH]2)CC1 [Compound 9, 5-((1S,5R)-1-(5-(1-methylpiperidin-4-yl)-4H-1,2,4-triazol-3-yl)-5-(trifluoromethyl)-3-azabicyclo[3.1.0]hexan-3-yl)quinoline-8-carbonitrile]",< 0.1
6,"CN1[C@@H]2CC[C@H]1C[C@H](c1nnc([C@]34CN(c5ccc(C#N)c6ncccc56)C[C@@]3(C(F)(F)F)C4)o1)C2 [Compound 11, 5-((1S,5R)-1-(5-((1R,3S,5S)-8-methyl-8-azabicyclo[3.2.1]octan-3-yl)-1,3,4-oxadiazol-2-yl)-5-(trifluoromethyl)-3-azabicyclo[3.1.0]hexan-3-yl)quinoline-8-carbonitrile]",< 0.1
7,"N#Cc1ccc(N2C[C@]3(c4nnc([C@H]5CC[C@H](N)CC5)o4)C[C@]3(C(F)(F)F)C2)c2cccnc12 [Compound 20, 5-((1S,5R)-1-(5-((1R,4S)-4-aminocyclohexyl)-1,3,4-oxadiazol-2-yl)-5-(trifluoromethyl)-3-azabicyclo[3.1.0]hexan-3-yl)quinoline-8-carbonitrile]",< 0.1
8,"N#Cc1ccc(N2C[C@]3(c4nnc(C5=CCNC5)o4)C[C@]3(C(F)(F)F)C2)c2cccnc12 [Compound 22, 5-((1S,5R)-1-(5-(2,5-dihydro-1H-pyrrol-3-yl)-1,3,4-oxadiazol-2-yl)-5-(trifluoromethyl)-3-azabicyclo[3.1.0]hexan-3-yl)quinoline-8-carbonitrile]",< 0.1
9,"N#Cc1ccc(N2C[C@]3(c4nnc(C5CC6(CNC6)C5)o4)C[C@]3(C(F)(F)F)C2)c2cccnc12 [Compound 18, 5-((1S,5R)-1-(5-(2-azaspiro[3.3]heptan-6-yl)-1,3,4-oxadiazol-2-yl)-5-(trifluoromethyl)-3-azabicyclo[3.1.0]hexan-3-yl)quinoline-8-carbonitrile]",< 0.1
10,"CN1CCC(O)(c2nnc([C@]34CN(c5ccc(C(F)(F)F)c6ncccc56)C[C@@]3(C(F)(F)F)C4)o2)CC1 [Compound 94, 1-methyl-4-(5-((1S,5R)-5-(trifluoromethyl)-3-(8-(trifluoromethyl)quinolin-5-yl)-3-azabicyclo[3.1.0]hexan-1-yl)-1,3,4-oxadiazol-2-yl)piperidin-4-ol]",< 0.1
11,"N#Cc1ccc(N2C[C@]3(c4nnc(C5CCN(CC(N)=O)CC5)o4)C[C@]3(C(F)(F)F)C2)c2cccnc12 [Compound 17, 2-(4-(5-((1S,5R)-3-(8-cyanoquinolin-5-yl)-5-(trifluoromethyl)-3-azabicyclo[3.1.0]hexan-1-yl)-1,3,4-oxadiazol-2-yl)piperidin-1-yl)acetamide]",< 0.1
12,"CN1CC(c2nnc([C@]34CN(c5ccc(C#N)c6ncccc56)C[C@@]3(C(F)(F)F)C4)o2)C1 [Compound 39, 5-((1S,5R)-1-(5-(1-methylazetidin-3-yl)-1,3,4-oxadiazol-2-yl)-5-(trifluoromethyl)-3-azabicyclo[3.1.0]hexan-3-yl)quinoline-8-carbonitrile]",< 0.1
13,"CN1CCC(Oc2nnc([C@]34CN(c5ccc(C#N)c6ncccc56)C[C@@]3(C(F)(F)F)C4)o2)CC1 [Compound 15, 5-((1S,5R)-1-(5-((1-methylpiperidin-4-yl)oxy)-1,3,4-oxadiazol-2-yl)-5-(trifluoromethyl)-3-azabicyclo[3.1.0]hexan-3-yl)quinoline-8-carbonitrile]",< 0.1

# The next lines start with the values.
row,IC50 [µM],Compound
1,< 0.1,"N#Cc1ccc(N2C[C@]3(c4nnc([C@H]5CN(CC(N)=O)CCO5)o4)C[C@]3(C(F)(F)F)C2)c2cccnc12 [Compound 56, 2-((R)-2-(5-((1S,5R)-3-(8-cyanoquinolin-5-yl)-5-(trifluoromethyl)-3-azabicyclo[3.1.0]hexan-1-yl)-1,3,4-oxadiazol-2-yl)morpholino)acetamide]"
2,< 0.1,"CN1CCC(c2nnc([C@]34CN(c5ccc(C#N)c6ncnn56)C[C@@]3(C(F)(F)F)C4)o2)CC1 [Compound 91, 5-((1S,5R)-1-(5-(1-methylpiperidin-4-yl)-1,3,4-oxadiazol-2-yl)-5-(trifluoromethyl)-3-azabicyclo[3.1.0]hexan-3-yl)-[1,2,4]triazolo[1,5-a]pyridine-8-carbonitrile]"
3,< 0.1,"N#Cc1ccc(N2C[C@]3(c4nnc(C5CNCC(F)C5)o4)C[C@]3(C(F)(F)F)C2)c2cccnc12 (stereo partly drawn) [Compound 45, 5-((1R,5S)-1-((difluoro-3-methyl)-12-fluoraneyl)-5-(5-(5-fluoropiperidin-3-yl)-1,3,4-oxadiazol-2-yl)-3-azabicyclo[3.1.0]hexan-3-yl)quinoline-8-carbonitrile]"
4,< 0.1,"CN1CC(Cc2nnc([C@]34CN(c5ccc(C(F)(F)F)c6ncccc56)C[C@@]3(C(F)(F)F)C4)o2)C1 [Compound 95, 2-((1-methylazetidin-3-yl)methyl)-5-((1S,5R)-5-(trifluoromethyl)-3-(8-(trifluoromethyl)quinolin-5-yl)-3-azabicyclo[3.1.0]hexan-1-yl)-1,3,4-oxadiazole]"
5,> 1,"CN1CCC(c2nnc([C@]34CN(c5c(Br)cc(C#N)n6ncc(Br)c56)C[C@@]3(C(F)(F)F)C4)o2)CC1 [Compound 85, 3,5-dibromo-4-((1S,5R)-1-(5-(1-methylpiperidin-4-yl)-1,3,4-oxadiazol-2-yl)-5-(trifluoromethyl)-3-azabicyclo[3.1.0]hexan-3-yl)pyrazolo[1,5-a]pyridine-7-carbonitrile]"
6,< 0.1,"COc1ccc(N2C[C@]3(c4nnc(C5CCN(C)CC5)o4)C[C@]3(C(F)(F)F)C2)c2cccnc12 [Compound 66, 2-((1S,5R)-3-(8-methoxyquinolin-5-yl)-5-(trifluoromethyl)-3-azabicyclo[3.1.0]hexan-1-yl)-5-(1-methylpiperidin-4-yl)-1,3,4-oxadiazole]"
